Results taken from patent US3996344A, “Phenethylamine antigenic conjugates, their preparation, antibodies and use” (Biological Developments, Inc., priority 1974, dated 1976).

System: antiserum (antibody raised in rabbits to the antigen of Example I, N-TFA-p-aminoamphetamine coupled to BSA)
Assay: Radioimmune assay for amphetamine: competitive inhibition of 3H-d-amphetamine binding to, and cross-reactivity of, antiserum raised to the antigen of Example I
Conditions: for Percent Cross-Reactivity: method of Abraham, relative quantity that produces 50% inhibition x 100, d-amphetamine = 100; for Percent Inhibition of Binding 3H-d-amphetamine: 3H-d-amphetamine 137 picograms, 2 hours, 4° C

For `C[C@@H](N)Cc1ccccc1` [1-amphetamine], the “Percent Cross-Reactivity” value was 1.45%.
`C[C@H](N)Cc1ccccc1` [d-amphetamine] was tested, and the “Percent Inhibition of Binding 3H-d-amphetamine” value (shortened to “Percent Inhibition”) (250 picograms of unlabeled amphetamine) was 12%, the “Percent Inhibition” value (500 picograms of unlabeled amphetamine) was 22% and the “Percent Inhibition” value (1,000 picograms of unlabeled amphetamine) was 33.5%. The “Percent Inhibition” value (10,000 picograms of unlabeled amphetamine) was 83.0% and the “Percent Cross-Reactivity” value was 100%.
With `CNCC(O)c1ccc(O)c(OC)c1` (stereo not shown) [metanephrine] the “Percent Cross-Reactivity” value was under 0.0125%.
With `CN[C@@H](C)Cc1ccccc1` [methadrine] the “Percent Cross-Reactivity” value was 0.45%.
In the case of `COc1cc(C(O)CN)ccc1O` (stereo not shown) [normetanephrine], the “Percent Cross-Reactivity” value is reported as under 0.0125%.
With `NCCc1ccc(O)cc1` [tyramine] the “Percent Cross-Reactivity” value was 3.4%.
